The text below walks through data of patent publication US20260287579A1, “METHOD FOR NON-INVASIVE HYPOXIA DETECTION” (BioVentures, LLC, priority 2023, published 2026).

In test [1] the test system is 4T1 murine breast cancer cells. Nature of the test: Bead-assisted flow cytometry for CD81+/Pimo+ vesicles from hypoxic or oxic cell cultures. Format: cell-based. The conditions noted are these: 100 μM pimonidazole, 24 hours, 0.5% oxygen vs regular air. On the procedure:
Isolating exosome from cell culture and Flow Cytometry analysis of isolated exosomes utilizing bead-assisted assay (FIGS. 10A-10B): 4T1 murine breast cancer cells were cultured in DMEM medium containing 10% Fetal Bovine Serum (FBS) at 37° C. in a humidified incubator with 5% CO2 and sub-cultured twice a week. For isolation of exosomes from 4T1 cultures, 1 million cells were plated in 10 cm plates and allowed to adhere overnight in the incubator. Cells were then washed with PBS, and the medium was changed to a medium containing 5% exosome-depleted FBS. Plates were grouped into four sets of five plates each. 100 μM pimonidazole was added to two sets, half of plates were incubated in a regular air incubator, and the other half in an incubator containing 0.5% Oxygen. After 24 hours, the medium was collected and subjected to sequential centrifugation at 1200, 3000, 10000, and 35000 rpm for 5, 15, 45 minutes, and 4 hours respectively. The final pellet was washed with PBS and centrifuged at 35000 rpm for 2 hours before being resuspended in 100 μl of PBS. The exosome amount was estimated using a BCA protein assay and the exosomes size was confirmed using a Nanoparticle Tracking Analyzer (NTA Instrument). […] Following the manufacture protocols, compensation beads were used to optimize fluorescence compensation settings and correct for spectral overlap between fluorophores. […]
A general note: Flow cytometry measures light scatter and fluorescence of single cells or particles in a stream.

For test [2], the system named is exosomes isolated from hypoxic cells. Nature of the test: Fluorescent plate reader detection of pimonidazole adducts in isolated exosomes with FITC anti-pimonidazole antibody. In kind it is cell-based. The conditions noted are these: FITC-labeled anti-pimonidazole antibody, plate reader 485/528 nm. The source says:
FIGS. 10A-10B are charts showing results from a flow cytometry-based bead assay designed to allow conventional flow cytometers to assess the presence of various markers on exosome sized particles. This is accomplished by using beads of known size which are bound by exosomes if they have the marker (antibody target) in question. It is clear that exosomes derived from hypoxic cells have an augmented amount of pimonidazole adducts present. The inventors also tested for the general immunoreactivity of hypoxic-cell derived exosomes using a standard plate reader and a commercially available fluorescently conjugated anti-pimonidazole antibody. Briefly, isolated exosomes from cell culture medium from mouse serum samples were, suspended in 1% bovine serum albumin, and incubated with a fluorescently tagged anti-pimonidazole antibody. After a period of 2 hours or overnight, the exosomes were washed twice, resuspended in PBS and the fluorescent signal was determined using a Cytation 5 multi-mode plate reader.
Labeling exosomes with FITC-conjugated anti-pimonidazole antibody and quantifying the labeled exosomes'(FIG. 11): 10-40 μg of exosomes were utilized for antibody labeling in a 100 μl total volume containing 1% BSA as a blocking reagent. […] Fluorescence readings were obtained using a Cytation 5 plate reader at excitation/emission wavelengths of 485/528 nm (+/−20 nm).

Regarding `O=[N+]([O-])c1nccn1CC(O)CN1CCCCC1` (centres unmarked) [pimonidazole], the “enhancement in percent of vesicles labeled in hypoxic vs oxic conditions” value in test [1] amounted to 4 fold. Further, the “increase in fluorescence signal, exosomes from hypoxic cells vs cells grown in normal oxygen” value in test [2] was approximately 2.5 fold.
